# In patent publication US20070128217A1 (priority 2003, published 2007):
# Columns and labels:
# [1] = tested on: antibodies in sera from SARS patients (sera 1a, 1b, 2, 6, 37, 62, London, SARS-yellow, SARS-green); type: binding, human; design: Binding of serum 6 to linear peptides of protein X1 of SARS-CoV Urbani / Binding of serum 37 to linear peptides of protein X1 of SARS-CoV Urbani / Binding of serum 6 to looped/cyclic peptide (PEPSCAN-ELISA) / Binding of serum 37 to looped/cyclic peptide (PEPSCAN-ELISA) / Binding of serum 37 to looped/cyclic peptides of protein X1 of SARS-CoV Urbani / Binding of serum 6 to linear peptides of protein X2 / Binding of serum 37 to linear peptides of protein X2 / Binding of serum 37 to looped/cyclic peptides of protein X2 of SARS-CoV Urbani / Binding of serum 6 to linear peptides of protein M of SARS-CoV Urbani / Binding of serum 37 to linear peptides of protein M of SARS-CoV Urbani / Binding of serum 6 to looped/cyclic peptides of protein M of SARS-CoV Urbani / Binding of serum 37 to looped/cyclic peptides of protein M of SARS-CoV Urbani / Binding of serum 6 to linear peptides of protein X3 of SARS-CoV Urbani / Binding of serum 37 to linear peptides of protein X3 of SARS-CoV Urbani / Binding of serum 37 to looped/cyclic peptides of protein X3 of SARS-CoV Urbani / Binding of serum 6 to linear peptides of protein X4 of SARS-CoV Urbani / Binding of serum 37 to linear peptides of protein X4 of SARS-CoV Urbani / Binding of serum 37 to looped/cyclic peptides of protein X4 of SARS-CoV Urbani / Binding of serum 6 to linear peptides of protein X5 of SARS-CoV Urbani / Binding of serum 37 to linear peptides of protein X5 of SARS-CoV Urbani / Binding of serum 37 to looped/cyclic peptides of protein X5 of SARS-CoV Urbani / Binding of serum 6 to linear peptides of protein N of SARS-CoV Urbani / Binding of serum 37 to linear peptides of protein N of SARS-CoV Urbani / Binding of serum 6 to linear peptide (PEPSCAN-ELISA) / Binding of serum 1a to looped/cyclic peptides of protein N of SARS-CoV Urbani / Binding of serum 1b to looped/cyclic peptides of protein N of SARS-CoV Urbani / Binding of serum 2 to looped/cyclic peptides of protein N of SARS-CoV Urbani / Binding of serum 6 to looped/cyclic peptides of protein N of SARS-CoV Urbani / Binding of serum 37 to looped/cyclic peptides of protein N of SARS-CoV Urbani / Binding of serum 62 to looped/cyclic peptides of protein N of SARS-CoV Urbani / Binding of serum London to looped/cyclic peptides of protein N of SARS-CoV Urbani / Binding of serum SARS-green to looped/cyclic peptides of protein N of SARS-CoV Urbani: unit not given here
# [2] = tested on: control sera (pooled serum of ten healthy LUMC hospital workers; commercial negative donor pooled serum from the Dutch bloodbank); type: binding, human; design: Binding of Control serum LUMC to linear peptides / Binding of Control serum Blood-bank to linear peptides / Binding of Control serum LUMC to looped peptides / Binding of Control Serum Blood-Bank to Looped peptides / Binding of Control serum LUMC to linear peptides of the protein M of SARS-CoV Urbani / Binding of Control serum Blood-bank to linear peptides of the protein M of SARS-CoV Urbani / Binding of Control serum LUMC to looped peptides of the protein M of SARS-CoV Urbani / Binding of Control Serum Blood-Bank to Looped peptides of the protein M of SARS-CoV Urbani: unit not given here
# [3] = tested on: rabbit serum obtained by immunizing a rabbit with the SARS-CoV strain Frankfurt 1; type: binding; design: Binding of a rabbit serum to linear peptides / Binding of a rabbit serum to looped peptides / Rabbit serum linear peptides / Rabbit serum looped peptides / Binding of a rabbit serum to linear peptides of protein N of SARS-CoV Urbani (Rabbit serum linear peptides) / Binding of a rabbit serum to looped/cyclic peptides of protein N of SARS-CoV Urbani (Rabbit serum looped peptides): unit not given here
# [4] = tested on: recombinant human anti-SARS-CoV antibody 03-018; type: binding; design: Binding of antibody 03-018 to linear peptides of the N protein of SARS-CoV Urbani / Binding of antibody 03-018 to looped/cyclic peptides of the N protein of SARS-CoV Urbani: unit not given here
Sequence,Binding of serum 1a to linear peptides of protein N of SARS-CoV Urbani [1],Binding of serum 1a to looped/cyclic peptides of protein N of SARS-CoV Urbani [1],Binding of serum 1b to linear peptides of protein N of SARS-CoV Urbani [1],Binding of serum 1b to looped/cyclic peptides of protein N of SARS-CoV Urbani [1],Binding of serum 2 to linear peptides of protein N of SARS-CoV Urbani [1],Binding of serum 2 to looped/cyclic peptides of protein N of SARS-CoV Urbani [1],Binding of serum 6 to linear peptides of protein N of SARS-CoV Urbani [1],Binding of serum 6 to looped/cyclic peptides of protein N of SARS-CoV Urbani [1],Binding of serum 37 to linear peptides of protein N of SARS-CoV Urbani [1],Binding of serum 37 to looped/cyclic peptides of protein N of SARS-CoV Urbani [1],Binding of serum 62 to looped/cyclic peptides of protein N of SARS-CoV Urbani [1],Binding of serum London to looped/cyclic peptides of protein N of SARS-CoV Urbani [1],Binding of serum SARS-green to looped/cyclic peptides of protein N of SARS-CoV Urbani [1],Binding of serum SARS-yellow to looped/cyclic peptides of protein N of SARS-CoV Urbani [1],Binding of Control Serum Blood-Bank to Looped peptides [2],Binding of Control serum Blood-bank to linear peptides [2],Binding of Control serum LUMC to linear peptides [2],Binding of Control serum LUMC to looped peptides [2],Binding of a rabbit serum to linear peptides of protein N of SARS-CoV Urbani (Rabbit serum linear peptides) [3],Binding of a rabbit serum to looped/cyclic peptides of protein N of SARS-CoV Urbani (Rabbit serum looped peptides) [3],also measured
RITFGGPTDSTDNNQ,0.2,0.3,0.1,0.2,0.2,0.2,0.1,0.2,0.8,0.5,0.3,0.3,0.4,0.2,0.6,0.6,0.5,0.5,0.3,0.1,Binding of serum 62 to linear peptides of protein N of SARS-CoV Urbani [1]: 0.6; Binding of serum London to linear peptides of protein N of SARS-CoV Urbani [1]: 0.5; Binding of serum SARS-green to linear peptides of protein N of SARS-CoV Urbani [1]: 0.5; Binding of serum SARS-yellow to linear peptides of protein N of SARS-CoV Urbani [1]: 1.3; Recognition of the peptide by antibody 03-018 [4]: recognized
NNTASWFTALTQHGK,0.2,0.2,0.1,0.1,0.2,0.2,0.1,0.1,0.7,0.4,0.2,0.2,0.1,0.1,0.5,0.6,0.7,0.4,0.1,0.3,Binding of serum 62 to linear peptides of protein N of SARS-CoV Urbani [1]: 0.6; Binding of serum London to linear peptides of protein N of SARS-CoV Urbani [1]: 0.4; Binding of serum SARS-green to linear peptides of protein N of SARS-CoV Urbani [1]: 0.4; Binding of serum SARS-yellow to linear peptides of protein N of SARS-CoV Urbani [1]: 0.5; Binding of antibody 03-018 to linear peptides of the N protein of SARS-CoV Urbani [4]: 0.1; Binding of antibody 03-018 to looped/cyclic peptides of the N protein of SARS-CoV Urbani [4]: 0.2
SNQRSAPRITFGGPT,0.2,0.4,0.1,0.2,0.2,0.4,0.1,0.4,0.6,0.7,0.4,0.9,0.3,0.6,0.7,0.6,0.5,0.7,0.4,0.9,Binding of serum 62 to linear peptides of protein N of SARS-CoV Urbani [1]: 0.6; Binding of serum London to linear peptides of protein N of SARS-CoV Urbani [1]: 0.4; Binding of serum SARS-green to linear peptides of protein N of SARS-CoV Urbani [1]: 0.2; Binding of serum SARS-yellow to linear peptides of protein N of SARS-CoV Urbani [1]: 0.5; Recognition of the peptide by antibody 03-018 [4]: recognized
SKVSGKGQQQQGQTV,–,0.4,–,0.2,–,0.7,–,0.4,–,0.6,0.6,0.8,0.5,0.6,0.8,0.6,0.7,0.8,0.1,0.6,Binding of serum 1a to linear peptide (PEPSCAN-ELISA) [1]: 0.2; Binding of serum 1b to linear peptide (PEPSCAN-ELISA) [1]: 0.1; Binding of serum 2 to linear peptide (PEPSCAN-ELISA) [1]: 0.3; Binding of serum 6 to linear peptide (PEPSCAN-ELISA) [1]: 0.1; Binding of serum 37 to linear peptide (PEPSCAN-ELISA) [1]: 0.5; Binding of serum 62 to linear peptide (PEPSCAN-ELISA) [1]: 0.6; Binding of serum London to linear peptide (PEPSCAN-ELISA) [1]: 0.5; Binding of serum SARS-green to linear peptide (PEPSCAN-ELISA) [1]: 0.3; Binding of serum SARS-yellow to linear peptide (PEPSCAN-ELISA) [1]: 0.7; Binding of antibody 03-018 to linear peptides of the N protein of SARS-CoV Urbani [4]: 0.1; Binding of antibody 03-018 to looped/cyclic peptides of the N protein of SARS-CoV Urbani [4]: 0.2
